Source: US5622948A, “Pyrrole pyridazine and pyridazinone anti-inflammatory agents” (Syntex (U.S.A.) Inc., priority 1994, dated 1997)

Experiments:
COX I = COX I (Homo sapiens, UniProt P23219); experiment: radiometric assay, COX I inhibition (human recombinant, baculovirus expressed, partially purified); type: biochemical; set-up: A 2 Kb fragment containing the coding region of COX I; made in house; host or cells: Sf9 insect cells, baculovirus (cDNA from Oxford Biomedical Research); conditions: radiometric assay, human recombinant baculovirus expressed enzyme; read-out: COX I IC50 (Table 2)
COX I, sequence (P23219 24-599): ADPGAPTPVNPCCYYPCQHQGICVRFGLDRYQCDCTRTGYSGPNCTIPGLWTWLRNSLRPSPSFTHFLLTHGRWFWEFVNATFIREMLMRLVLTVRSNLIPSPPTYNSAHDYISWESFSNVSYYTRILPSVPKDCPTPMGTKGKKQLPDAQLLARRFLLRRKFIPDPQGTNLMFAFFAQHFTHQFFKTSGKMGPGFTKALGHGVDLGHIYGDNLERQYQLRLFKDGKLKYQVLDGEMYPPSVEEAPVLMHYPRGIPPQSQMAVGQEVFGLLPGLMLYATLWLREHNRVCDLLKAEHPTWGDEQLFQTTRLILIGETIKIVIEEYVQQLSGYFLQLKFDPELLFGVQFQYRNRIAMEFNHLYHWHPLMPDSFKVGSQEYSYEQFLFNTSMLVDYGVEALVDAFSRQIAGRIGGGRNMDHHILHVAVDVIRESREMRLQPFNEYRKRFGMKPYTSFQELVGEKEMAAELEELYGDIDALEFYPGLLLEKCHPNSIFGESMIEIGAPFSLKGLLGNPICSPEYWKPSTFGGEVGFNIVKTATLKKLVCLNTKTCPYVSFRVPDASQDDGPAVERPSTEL
Description: (§1) Human prostaglandin G/H synthase I and II ("COX I" and "COX II") were expressed in the baculovirus expression system and purified to high levels.
(§2) As described above, human recombinant COX I and COX II were cloned and expressed in a baculovirus system. Partially purified COX I and COX II enzymes were used for screening compounds for their ability to inhibit COX I and COX II activity, as described below.
(§3) Compound (16), in 2 μl DMSO, and control samples (carrier vehicles only) were mixed with COX I or COX II samples (e.g. fractions from the chromatography columns) in polypropylene tubes and preincubated with 2 mM phenol for 5 minutes and then with 1 μM hematin for an additional 5 minutes. The 150 μl reaction mixture consisted of 50 mM Tris --HCl, pH 7.9, 2 mM EDTA, 10% glycerol, 200 μM phenol, 1 μM hematin, 1-25 μl sample and 20 μM 1-[^14 C] arachidonate (80.000-100.000 cpm/tube). After 45 seconds at room temperature, the reaction was terminated by adding 200 μl of 2N HCl and 750 μl water. An aliquot (950 μl) of the reaction mixture was loaded onto a 1 ml C~ Sep-Pak (J. T. Baker, Phillipsburg, N.J.) which had been previously washed with 2-3 ml methanol and equilibrated with 5-6 ml distilled water. Oxygenated products were quantitatively eluted with 3 ml of acetonitrile, H2 O and acetic acid (50:50:0.1, v/v) and the radioactivity in the eluate determined in a scintillation counter.
(§4) Human recombinant 10 min incubation with Compound (16)
(§5) baculovirus 45 sec incubation with 20 μM AA
(§6) partially purified Separation of radioactive products

COX II = target: T1, COX II (Homo sapiens, UniProt P35354); experiment: radiometric assay, COX II inhibition (human recombinant, baculovirus expressed, partially purified); type: biochemical; set-up: A 1.8 Kb DNA fragment containing the coding region of human COX II was generated by PCR; made in house; host or cells: Sf9 insect cells, baculovirus; conditions: radiometric assay, human recombinant baculovirus expressed enzyme; read-out: COX II IC50 (Table 2)
T1 sequence (P35354 18-604): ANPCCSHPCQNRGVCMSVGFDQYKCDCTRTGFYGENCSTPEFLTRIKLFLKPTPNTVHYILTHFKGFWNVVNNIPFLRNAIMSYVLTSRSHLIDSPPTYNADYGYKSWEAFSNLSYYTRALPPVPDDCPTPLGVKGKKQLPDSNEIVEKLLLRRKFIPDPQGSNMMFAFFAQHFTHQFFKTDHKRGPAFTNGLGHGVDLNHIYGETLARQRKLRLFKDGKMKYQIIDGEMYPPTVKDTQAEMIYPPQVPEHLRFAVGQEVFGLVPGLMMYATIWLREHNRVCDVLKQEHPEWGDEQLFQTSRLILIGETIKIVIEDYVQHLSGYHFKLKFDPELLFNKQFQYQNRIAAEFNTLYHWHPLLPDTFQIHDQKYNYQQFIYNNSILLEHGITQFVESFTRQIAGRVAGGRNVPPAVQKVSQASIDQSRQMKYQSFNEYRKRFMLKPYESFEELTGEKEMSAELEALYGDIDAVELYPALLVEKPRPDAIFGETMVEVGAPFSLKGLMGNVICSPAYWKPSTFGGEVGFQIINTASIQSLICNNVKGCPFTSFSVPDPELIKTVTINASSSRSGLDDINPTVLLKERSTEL
Description: as §1, §2, §3, §4, §5, §6

| IC50 (COX I) [µM] | IC50 (COX II) [µM] | Compound |
| --- | --- | --- |
| 8.1 | 2.3 | 6-(5-benzoyl-3-chloro-4-methyl-1H-pyrrol-2-ylmethyl)-2H-pyridazin-3-one [Compound 89] |
| 64.7 | 0.61 | CC(=O)OCn1nc(Cc2cc(C)c(C(=O)c3ccc(Cl)cc3)n2C)ccc1=O [Compound 161, acetic acid 2-{3-[5-(4-chloro-benzoyl)-1,4,-dimethyl-1H-pyrrol-2-ylmethyl]-6-oxo-6H-pyridazin-1-yl}-methyl ester] |
| 440 | 0.7 | Cc1c(Cl)c(Cc2ccc(=O)[nH]n2)n(C)c1C(=O)c1ccc(Cl)cc1 [Compound 24, 6-[3-chloro-5-(4-chloro-benzoyl)-1,4-dimethyl-1H-pyrrol-2-ylmethyl]-2H-pyridazin-3-one] |
| 6.3 | 0.23 | Cc1cc(Cc2ccc(=O)n(Cc3ccccc3)n2)n(C)c1C(=O)c1ccc(Cl)cc1 [Compound 121, 2-benzyl-6-[5-(4-chloro-benzoyl)-1,4,-dimethyl-1H-pyrrol-2-ylmethyl]-2H-pyridazin-3-one] |
| 0.92 | 0.18 | COC(=O)Cn1nc(Cc2cc(C)c(C(=O)c3ccc(Cl)cc3)n2C)ccc1=O [Compound 116, {3-[5-(4-chloro-benzoyl)-1,4,-dimethyl-1H-pyrrol-2-ylmethyl]-6-oxo-6H-pyridazin-1-yl}-acetic acid methyl ester] |
| 3.7 | 0.07 | Cc1cc(Cc2ccc(=O)n(Cc3ccc(Cl)cc3)n2)n(C)c1C(=O)c1ccc(Cl)cc1 [Compound 133, 6-[5-(4-chloro-benzoyl)-1,4,-dimethyl-1H-pyrrol-2-ylmethyl]-2-(4-chlorobenzyl)-2H-pyridazin-3-one] |
| > 100 | 0.58 | Cc1ccc(C(=O)c2cc(Br)c(Cc3ccc(=O)[nH]n3)n2C)cc1 [Compound 130, 6-[3-bromo-1-methyl-5-(4-methyl-benzoyl)-1H-pyrrol-2-ylmethyl]-2H-pyridazin-3-one] |
| 48 | 0.53 | Cc1cc(Cc2ccc(=O)n(CCCO)n2)n(C)c1C(=O)c1ccc(Cl)cc1 [Compound 140, 6-[5-(4-chloro-benzoyl)-1,4,-dimethyl-1H-pyrrol-2-ylmethyl]-2-(3-hydroxy-1-propyl)-2H-pyridazin-3-one] |
| 26.7 | 1.5 | Cc1cc(Cc2ccc(=O)[nH]n2)n(C)c1C(=O)c1ccccc1 [Compound 32, 6-[5-benzoyl-1,4-dimethyl-1H-pyrrol-2-ylmethyl]-2H-pyridazin-3-one] |
| 20.6 | 0.81 | COc1ccc(C(=O)c2c(Cl)cc(Cc3ccc(=O)[nH]n3)n2C)cc1 [Compound 82, 6-[4-chloro-5-(4-methoxy-benzoyl)-1-methyl-1H-pyrrol-2-ylmethyl]-2H-pyridazin-3-one] |

More lines, now with the values behind:

| Compound | IC50 (COX I) [µM] | IC50 (COX II) [µM] |
| --- | --- | --- |
| Cc1cc(Cc2ccc(=O)n(CCCl)n2)n(C)c1C(=O)c1ccc(Cl)cc1 [Compound 131, 6-[5-(4-chloro-benzoyl)-1,4-dimethyl-1H-pyrrol-2-ylmethyl]-2-(2-chloroethyl)-2H-pyridazin-3-one] | 5.3 | 0.12 |
| C=Cc1ccc(C(=O)c2ccc(Cc3ccc(=O)[nH]n3)n2C)cc1 [Compound 54, 6-[1-methyl-5-(4-vinyl-benzoyl)-1H-pyrrol-2-ylmethyl]-2H-pyridazin-3-one] | 190 | 0.44 |
| Cc1ccc(C(=O)c2c(Cl)cc(Cc3ccc(=O)[nH]n3)n2C)cc1 [Compound 80, 6-[4-chloro-1-methyl-5-(4-methyl-benzoyl)-1H-pyrrol-2-ylmethyl]-2H-pyridazin-3-one] | ≥ 1000 | 0.7 |
| CCc1ccc(C(=O)c2ccc(Cc3ccc(=O)[nH]n3)n2C)cc1 [Compound 46, 6-[5-(4-ethyl-benzoyl)-1-methyl-1H-pyrrol-2-ylmethyl]-2H-pyridazin-3-one] | > 100 | 7.2 |
| C=Cc1ccc(C(=O)c2c(C)cc(Cc3ccc(=O)[nH]n3)n2C)cc1 [Compound 33, 6-[1,4-dimethyl-5-(4-vinyl-benzoyl)-1H-pyrrol-2-ylmethyl]-2H-pyridazin-3-one] | 31.7 | 0.44 |
| CSc1ccc(C(=O)c2ccc(Cc3ccc(=O)[nH]n3)n2C)cc1 [Compound 43, 6-[1-methyl-5-(4-methylthio-benzoyl)-1H-pyrrol-2-ylmethyl]-2H-pyridazin-3-one] | 23 | 0.3 |
| COc1ccc(Cn2nc(Cc3cc(C)c(C(=O)c4ccc(Cl)cc4)n3C)ccc2=O)cc1 [Compound 168, 6-[5-(4-chloro-benzoyl)-1,4,-dimethyl-1H-pyrrol-2-ylmethyl]-2-(4-methoxybenzyl)-2H-pyridazin-3-one] | 7.9 | 0.91 |
| Cc1cc(C(C)c2ccc(=O)[nH]n2)n(C)c1C(=O)c1ccc(Cl)cc1 (stereo not shown) [Compound 18, 6-{1-[5-(4-chloro-benzoyl)-1,4-dimethyl-1H-pyrrol-2-yl]-ethyl}-2H-pyridazin-3-one] | 15 | 1.5 |
| Cc1ccc(C(=O)c2ccc(C(C)c3ccc(=O)[nH]n3)n2C)cc1 (stereo not shown) [Compound 95, 6-{1-[1-methyl-5-(4-methyl-benzoyl)-1H-pyrrol-2-yl]-ethyl}-2H-pyridazin-3-one] | 140 | 1.3 |
| CC(=O)OCCn1nc(Cc2cc(C)c(C(=O)c3ccc(Cl)cc3)n2C)ccc1=O [Compound 135, acetic acid 2-{3-[5-(4-chloro-benzoyl)-1,4,-dimethyl-1H-pyrrol-2-ylmethyl]-6-oxo-6H-pyridazin-1-yl}ethyl ester] | 52 | 0.35 |
| Cc1ccc(C(=O)c2ccc(CC3=NNC(=O)CC3)n2C)cc1 [Compound 102, 6-[1-methyl-5-(4-methyl-benzoyl)-1H-pyrrol-2-ylmethyl]-4,5-dihydro-2H-pyridazin-3-one] | 260 | 3.1 |
| COc1ccc(C(=O)c2ccc(Cc3ccc(=O)[nH]n3)n2C)cc1 [Compound 53, 6-[5-(4-methoxy-benzoyl)-1-methyl-1H-pyrrol-2-ylmethyl]-2H-pyridazin-3-one] | 420 | 1 |
| Cc1cc(Cc2ccc(=O)n(CCO)n2)n(C)c1C(=O)c1ccc(Cl)cc1 [Compound 118, 6-[5-(4-chloro-benzoyl)-1,4,-dimethyl-1H-pyrrol-2-ylmethyl]-2-(2-hydroxy-ethyl)-2H-pyridazin-3-one] | 76 | 0.8 |
| C#CCn1nc(Cc2cc(C)c(C(=O)c3ccc(Cl)cc3)n2C)ccc1=O [Compound 126, 6-[5-(4-chloro-benzoyl)-1,4-dimethyl-1H-pyrrol-2-ylmethyl]-2-prop-2-ynyl-2H-pyridazin-3-one] | 61.4 | 0.97 |
| Cc1cc(Cc2ccc(=O)n(Cc3ccc(F)cc3)n2)n(C)c1C(=O)c1ccc(Cl)cc1 [Compound 129, 6-[5-(4-chloro-benzoyl)-1,4,-dimethyl-1H-pyrrol-2-ylmethyl]-2-(4-fluorobenzyl)-2H-pyridazin-3-one] | 3.4 | 0.067 |
| COc1ccc(C(=O)c2cc(Cl)c(Cc3ccc(=O)[nH]n3)n2C)cc1 [Compound 88, 6-[3-chloro-5-(4-methoxy-benzoyl)-1-methyl-1H-pyrrol-2-ylmethyl]-2H-pyridazin-3-one] | 100 | 0.55 |
